Experimental data as given in patent US20040266732A1, “Therapeutic agents, methods, and treatments” (priority 2002, published 2004).

Legend:
Assay in all cases: NCI 60 cell-line test
Assay type in all cases: cell-based, human
[1] = test system: LOX IMVI; settings: LOX IMVI (Melanoma)
Description: (§1) Methodology: The NCI conducted a test of the MT103 drug against 60 human cell lines, with a minimum of five concentrations of MT103 at 10-fold dilutions. A 48 hour continuous drug exposure was used, and a sulforhodamine B (SRB) protein assay was used to estimate cell viability and growth. The human tumor cell lines of the cancer screening panel were grown in RPMI 1640 medium containing 5% fetal bovine serum and 2 mM L-glutamine. Cells were inoculated into 96 well microtiter plates in 100 μL at plating densities ranging from 5,000 to 40,000 cells/well depending on the doubling time of individual cell lines. After cell inoculation, the microtiter plates are incubated at 37° C., 5% CO2, 95% air, and 100% relative humidity for 24 h prior to addition of experimental drugs.
(§2) After 24 h, two plates of each cell line were fixed in situ with TCA, to represent a measurement of the cell population for each cell line at the time of drug addition (Tz). MT103 was solubilized in dimethyl sulfoxide at 400-fold the desired final maximum test concentration and stored frozen prior to use. At the time of drug addition, an aliquot of frozen concentrate was thawed and diluted to twice the desired final maximum test concentration with complete medium containing 50 μg/ml gentamicin. Additional four, 10-fold or ½ log serial dilutions were made to provide a total of five drug concentrations plus control. Aliquots of 100 μl of these different drug dilutions were added to the appropriate microtiter wells already containing 100 μl of medium, resulting in the required final drug concentrations.
(§3) Following drug addition, the plates were incubated for an additional 48 h at 37° C., 5% CO2, 95% air, and 100% relative humidity. For adherent cells, the assay was terminated by the addition of cold TCA. Cells were fixed in situ by the gentle addition of 50 μl of cold 50% (w/v) TCA (final concentration, 10% TCA) and incubated for 60 minutes at 4° C. The supernatant was discarded, and the plates were washed five times with tap water and air dried. Sulforhodamine B (SRB) solution (100 μl) at 0.4% (w/v) in 1% acetic acid was added to each well, and plates were incubated for 10 minutes at room temperature. After staining, unbound dye was removed by washing five times with 1% acetic acid and the plates were air-dried. Bound stain was subsequently solubilized with 10 mM trizma base, and the absorbance was read on an automated plate reader at a wavelength of 515 nm. For suspension cells, the methodology was the same except that the assay was terminated by fixing settled cells at the bottom of the wells by gently adding 50 μl of 80% TCA (final concentration, 16% TCA). Using the seven absorbance measurements (time zero, (Tz), control growth, (C), and test growth in the presence of drug at the five concentration levels (Ti)), the percentage growth was calculated at each of the drug concentrations levels. Percentage growth inhibition was calculated as:
(§4) [(Ti-Tz)/(C-Tz)]×100 for concentrations for which Ti>/=Tz
(§5) [(Ti-Tz)/Tz]×100 for concentrations for which Ti<Tz.
(§6) Three dose response parameters were calculated for each experimental agent. Growth inhibition of 50% (GI50) was calculated from [(Ti-Tz)/(C-Tz)]×100=50, which is the drug concentration resulting in a 50% reduction in the net protein increase (as measured by SRB staining) in control cells during the drug incubation. The drug concentration resulting in total growth inhibition (TGI) was calculated from Ti=Tz. The LC50 (concentration of drug resulting in a 50% reduction in the measured protein at the end of the drug treatment as compared to that at the beginning) indicating a net loss of cells following treatment was calculated from [(Ti-Tz)/Tz]×100=−50. Values were calculated for each of these three parameters if the level of activity is reached; however, if the effect was not reached or was exceeded, the value for that parameter was expressed as greater or less than the maximum or minimum concentration tested.

[2] = test system: KM12; settings: KM12 (Colon Cancer)
Description: as §1, §2, §3, §4, §5, §6

[3] = test system: TK-10; settings: TK-10 (Renal Cancer)
Description: as §1, §2, §3, §4, §5, §6

[4] = test system: NCI-H460; settings: NCI-H460 (Non-Small Cell Lung Cancer)
Description: as §1, §2, §3, §4, §5, §6

[5] = test system: UO-31; settings: UO-31 (Renal Cancer)
Description: as §1, §2, §3, §4, §5, §6

[6] = test system: U251; settings: U251 (CNS Cancer)
Description: as §1, §2, §3, §4, §5, §6

[7] = test system: K-562; settings: K-562 (Leukemia)
Description: as §1, §2, §3, §4, §5, §6

[8] = test system: DU-145; settings: DU-145 (Prostate Cancer)
Description: as §1, §2, §3, §4, §5, §6

[9] = test system: SF-539; settings: SF-539 (CNS Cancer)
Description: as §1, §2, §3, §4, §5, §6

[10] = test system: MDA-MB-435; settings: MDA-MB-435 (Breast Cancer)
Description: as §1, §2, §3, §4, §5, §6

[11] = test system: CAKI-1; settings: CAKI-1 (Renal Cancer)
Description: as §1, §2, §3, §4, §5, §6

[12] = test system: OVCAR-3; settings: OVCAR-3 (Ovarian Cancer)
Description: as §1, §2, §3, §4, §5, §6

[13] = test system: HS 578T; settings: HS 578T (Breast Cancer)
Description: as §1, §2, §3, §4, §5, §6

[14] = test system: NCI-H522; settings: NCI-H522 (Non-Small Cell Lung Cancer)
Description: as §1, §2, §3, §4, §5, §6

[15] = test system: UACC-62; settings: UACC-62 (Melanoma)
Description: as §1, §2, §3, §4, §5, §6

[16] = read-out: LC50 (the source's name)

Compound `CC1(C)C2CC[C@@]1(CS(=O)(=O)N(C1CCCCC1)C1CCCCC1)C(O)C2` (stereo partly drawn) [MT103] has a TGI [1] of 3.95E−05, an IC50 ([1]; read-out: G150) of 19 µM and a CC50 [1, 16] of 82.3 µM. For the same compound, the TGI [2] was 9.73E−05, the IC50 ([2]; read-out: G150) was 28.4 µM and the CC50 [2, 16] was over 100 µM. It also gave a TGI [3] of 9.02E−05, an IC50 ([3]; read-out: G150) of 21.6 µM and a CC50 [3, 16] of over 100 µM. It also gave a TGI [4] of over 1.00E−04, an IC50 ([4]; read-out: G150) of 30.9 µM and a CC50 [4, 16] of over 100 µM. The TGI [5] was 8.94E−05, the IC50 ([5]; read-out: G150) was 28 µM and the CC50 [5, 16] was over 100 µM. For the same compound, the TGI [6] was over 1.00E−04, the IC50 ([6]; read-out: G150) was 28.7 µM and the CC50 [6, 16] was over 100 µM. It also gave a TGI [7] of over 1.00E−04, an IC50 ([7]; read-out: G150) of 26.8 µM and a CC50 [7, 16] of over 100 µM. The TGI [8] was over 1.00E−04, the IC50 ([8]; read-out: G150) was 30.5 µM and the CC50 [8, 16] was over 100 µM. The TGI [9] was over 1.00E−04, the IC50 ([9]; read-out: G150) was 54.6 µM and the CC50 [9, 16] was over 100 µM. It also gave a TGI [10] of 9.88E−05, an IC50 ([10]; read-out: G150) of 28.4 µM and a CC50 [10, 16] of over 100 µM. The TGI [11] was 9.05E−05, the IC50 ([11]; read-out: G150) was 23.5 µM and the CC50 [11, 16] was over 100 µM. It also gave a TGI [12] of 6.30E−05, an IC50 ([12]; read-out: G150) of 23 µM and a CC50 [12, 16] of over 100 µM. It also gave a TGI [13] of over 1.00E−04, an IC50 ([13]; read-out: G150) of 29 µM and a CC50 [13, 16] of over 100 µM. The TGI [14] was 5.50E−05, the IC50 ([14]; read-out: G150) was 21.5 µM and the CC50 [14, 16] was over 100 µM. It also gave a TGI [15] of 4.65E−05, an IC50 ([15]; read-out: G150) of 18.8 µM and a CC50 [15, 16] of over 100 µM.
